For this experiment, the target named is T1, Chymase (Homo sapiens, UniProt P23946).
T1 sequence (P23946 22-247): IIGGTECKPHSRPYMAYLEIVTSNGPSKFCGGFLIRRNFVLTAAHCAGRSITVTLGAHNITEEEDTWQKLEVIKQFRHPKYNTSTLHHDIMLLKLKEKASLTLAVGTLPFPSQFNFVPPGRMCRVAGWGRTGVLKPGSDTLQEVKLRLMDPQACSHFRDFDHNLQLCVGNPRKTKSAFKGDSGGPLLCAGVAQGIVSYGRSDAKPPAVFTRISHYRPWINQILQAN
Description: In vitro Assay for Inhibition of Chymase. The settings on record: 500 pM chymase, 100 nM rhodamine 110 peptide substrate, 1 hour at 28° C., fluorescence. It counts as biochemical. The procedure:
In vitro Assay for Inhibition of Chymase
Chymase assays were performed in a total volume of 15 μL in Corning black opaque 384-well microtiter plates with a non-binding surface (Coming, N.Y.). The assay buffer was comprised of 20 mM Tris HCl pH 8.0, 50 mM NaCl, 0.01% CHAPS. The test compounds were serially diluted 3-fold with neat DMSO in a 96-well polypropylene plate from a 10 mM DMSO stock to give the 10 point dose response curve. 3 μL of the resulting DMSO solution were transferred to a 384-well polypropylene plate in duplicate, and 37 μL of assay buffer was added. Chymase was added to the assay plate in 3 uL of assay buffer followed by 2 uL of the appropriate compound dilution using a PlateMate Plus (Matrix Technologies Corp., Hudson, N.H.). The reaction was initiated by the addition of 10 uL rhodamine 110, bis-(succinoyl-L-alanyl-L-alanyl-L-prolyl-L-phenylalanylamide) (American Peptides, Sunnyvale, Calif.) in assay buffer containing 150 μM tris(2-carboxyethyl)phosphine (TCEP, Pierce Chemical, Rockford, Ill.) using a Multidrop (Thermo Electron Corp., Waltham, Mass.). Final assay concentrations were 500 pM chymase, 100 nM substrate, 100 μM TCEP, and 1% DMSO. The plates were incubated at 28° C. and 80% humidity for 1 hour, at which time the fluorescence was read on a Viewlux 1430 Microplate Imager (Perkin Elmer Life Sciences, Boston, Mass.) with 485 nm excitation, 530 nm emission, and a fluorescein dichroic mirror. The percentage of control values were calculated relative to assay blanks containing complete reaction minus chymase and a 100% control containing assay buffer with 1% DMSO in place of compound. IC50 values were obtained by fitting the data using XLFit4 (IDBS Software).

Each structure is given as a SMILES string.

Usually IC50 stands for the concentration at which inhibition is half-maximal. With `Cc1cccc2c1c(Cn1c(=O)n(CC3(CC(=O)O)CCCCC3)c(=O)c3ccccc31)cn2C` [{1-[1-(1,4-Dimethyl-1H-indol-3-ylmethyl)-2,4-dioxo-1,4-dihydro-2H-quinazolin-3-ylmethyl]-cyclohexyl}-acetic acid], half-maximal inhibition (IC50) was put at 3 nM. Next, `Cc1cc(C)c2c(Cn3c(=O)n(C4(CC(=O)O)CCCCC4)c(=O)c4ccccc43)nsc2c1` [{1-[1-(4,6-Dimethyl-1,2-benzisothiazol-3-ylmethyl)-2,4-dioxo-1,4-dihydro-2H-quinazolin-3-yl]-cyclohexyl}-acetic acid]: 4 nM.

These data come from US8377949B2, “Quinazolinedione chymase inhibitors” (Boehringer Ingelheim International GmbH, priority 2007, dated 2013).
